Patent US10344335B2, “Mutant calreticulin for the diagnosis of myeloid malignancies” (CEMM—FORSCHUNGSZENTRUM FUER MOLEKULARE MEDIZIN GMBH, priority 2013, dated 2019)

Tested on: Ba/F3 cells expressing empty vector (GFP), CALR wild type or CALR del52
Assay: Sensitivity of Ba/F3 cells to the inhibitor SAR302503 (CellTiter-Glo cell viability)
Type: cell-based, murine
Conditions: Ba/F3 cells expressing CALR wild type vs CALR del52; 48 hours; 10 ng/ml interleukin-3; dilution series, highest concentration 40 μM; listed as JAK2 kinase inhibitor
Method: Ba/F3 cells expressing the empty vector (GFP), CALR wild type (CALR wt-GFP) or CALR mutant (CALR del52-GFP) were analyzed by defining cell viability after 48 hours in presence of decreasing SAR302503. For relative viability, relative luminescence units were normalized to the DMSO control. Error bars represent standard error of the mean.
To define the sensitivity to the inhibitor SAR302503 (Sanofi), Ba/F3 cells were plated in 96-well plates at 25000 cells per well in triplicates on a dilution series of SAR302503 (highest concentration 40 μM) and in presence of 10 ng/ml interleukin-3. After 48 hours cell viability was determined by the CellTiter-Glo® Luminescent Cell Viability Assay (Promega).

## Cc1cnc(Nc2ccc(OCCN3CCCC3)cc2)nc1Nc1cccc(S(=O)(=O)NC(C)(C)C)c1 [SAR302503]
  sensitivity of cells to SAR302503 (cell viability): suppressed equally
